The test system of the test is HCV type 1b replicon in Huh-7 luc/neo (Huh-Luc) cells. The experiment in a line: HCV replicon assay (Huh-Luc, luciferase readout). As to conditions: Hepatitis C virus, Huh-7, 72 h, luciferase activity, incubation of three days, read-out: HCV-REP-HUH7LUC_EC50. Format: cell-based. The text has this: The compounds of formula (I) were examined for inhibitory activity in the HCV replicon. This cellular assay is based on a bicistronic expression construct, as described by Lohmann et al. (1999) Science vol. 285 pp. 110-113 with modifications described by Krieger et al. (2001) Journal of Virology 75: 4614-4624, in a multi-target screening strategy.
In essence, the method was as follows:
The assay utilized the stably transfected cell line Huh-7 luc/neo (hereafter referred to as Huh-Luc). This cell line harbors an RNA encoding a bicistronic expression construct comprising the wild type NS3-NS5B regions of HCV type 1b translated from an Internal Ribosome Entry Site (IRES) from encephalomyocarditis virus (EMCV), preceded by a reporter portion (FfL-luciferase), and a selectable marker portion (neo^R, neomycine phosphotransferase). The construct is flanked by 5′ and 3′ NTRs (non-translated regions) from HCV type 1b. Continued culture of the replicon cells in the presence of G418 (neo^R) is dependent on the replication of the HCV RNA. The stably transfected replicon cells that express HCV RNA, which replicates autonomously and to high levels, encoding inter alia luciferase, were used for screening the antiviral compounds.
The replicon cells were plated in 384 well plates in the presence of the test and control compounds which were added in various concentrations. Following an incubation of three days, HCV replication was measured by assaying luciferase activity (using standard luciferase assay substrates and reagents and a Perkin Elmer ViewLux™ ultraHTS microplate imager). Replicon cells in the control cultures have high luciferase expression in the absence of any inhibitor. The inhibitory activity of the compound on luciferase activity was monitored on the Huh-Luc cells, enabling a dose-response curve for each test compound. EC50 values were then calculated, which represent the amount of compound required to decrease the level of detected luciferase activity by 50%, or more specifically, to reduce the ability of the genetically linked HCV replicon RNA to replicate.
For `O=C(C(O)Cc1cccnc1)N1CCC[C@H]1c1nc2ccc(-c3ccc(-c4ccc5nc([C@@H]6CCCN6C(=O)C(O)Cc6cccnc6)[nH]c5c4)cc3)cc2[nH]1` (mixture of isomers) [Compound 35], the EC50 amounted to 22 nM.

For the molecule `O=C(C(c1ccccc1)N1C2CCC1CC2)N1CCC[C@H]1c1nc2ccc(-c3ccc(-c4ccc5nc([C@@H]6CCCN6C(=O)C(c6ccccc6)N6C7CCC6CC7)[nH]c5c4)cc3)cc2[nH]1` (mixture of isomers) [Compound 43], the EC50 stood at 3.2 nM.

With `O=C(C(c1ccccc1)N1CCCC(F)(F)C1)N1CCC[C@H]1c1nc2ccc(-c3ccc(-c4ccc5nc([C@@H]6CCCN6C(=O)C(c6ccccc6)N6CCCC(F)(F)C6)[nH]c5c4)cc3)cc2[nH]1` (mixture of isomers) [Compound 44], the EC50 was 0.22 nM.

Regarding `O=C(C(Nc1ccccc1)c1ccc(Cl)cc1)N1CCC[C@H]1c1nc2ccc(-c3ccc(-c4ccc5nc([C@@H]6CCCN6C(=O)C(Nc6ccccc6)c6ccc(Cl)cc6)[nH]c5c4)cc3)cc2[nH]1` (mixture of isomers) [Compound 47], the EC50 was found to be 1.5 nM.

Take `COC(=O)NC(C(=O)N1CCC[C@H]1c1nc2ccc(-c3ccc(-c4ccc5nc([C@@H]6CCCN6C(=O)C(NC(=O)OC)C6CCOCC6)[nH]c5c4)cc3)cc2[nH]1)C1CCOCC1` (mixture of isomers) [Compound 55]: the EC50 was 0.18 nM.

Consider `O=C(Cc1ccccc1)N1CCC[C@H]1c1nc2ccc(-c3ccc(-c4ccc5nc([C@@H]6CCCN6C(=O)Cc6ccccc6)[nH]c5c4)cc3)cc2[nH]1` [Compound 1], for which the EC50 was found to be 0.1 nM.

In the case of `COC(=O)N[C@H](C(=O)N1CCC[C@H]1c1nc2cc(-c3ccc(-c4ccc5nc([C@@H]6CCCN6C(=O)[C@@H](NC(=O)OC)[C@@H](C)OC)[nH]c5c4)cc3)ccc2[nH]1)[C@@H](C)OC` [Compound 2], the EC50 turned out to be 0.021 nM.

Consider `O=C([C@H]1CCCO1)N1CCC[C@H]1c1nc2ccc(-c3ccc(-c4ccc5nc([C@@H]6CCCN6C(=O)[C@H]6CCCO6)[nH]c5c4)cc3)cc2[nH]1` [Compound 3], for which the EC50 worked out at 20 nM.

As to `CC(=O)N[C@@H](C(=O)N1CCC[C@H]1c1nc2ccc(-c3ccc(-c4ccc5nc([C@@H]6CCCN6C(=O)[C@H](NC(C)=O)c6ccccc6)[nH]c5c4)cc3)cc2[nH]1)c1ccccc1` [Compound 4], the EC50 was found to be 0.18 nM.

Turning to `CN(C)C(C(=O)N1CCC[C@H]1c1nc2ccc(-c3ccc(-c4ccc5nc([C@@H]6CCCN6C(=O)C(c6ccc(Cl)cc6)N(C)C)[nH]c5c4)cc3)cc2[nH]1)c1ccc(Cl)cc1` (stereo partly shown) [Compound 5], the EC50 was found to be 0.59 nM.

In the case of `COc1cccc(CCC(=O)N2CCC[C@H]2c2nc3ccc(-c4ccc(-c5ccc6nc([C@@H]7CCCN7C(=O)CCc7cccc(OC)c7)[nH]c6c5)cc4)cc3[nH]2)c1` [Compound 6], the EC50 amounted to 500 nM.

Take `O=C([C@@H](O)c1ccccc1)N1CCC[C@H]1c1nc2ccc(-c3ccc(-c4ccc5nc([C@@H]6CCCN6C(=O)[C@@H](O)c6ccccc6)[nH]c5c4)cc3)cc2[nH]1` [Compound 7]: the EC50 was 0.057 nM.

For the molecule `O=C(CCc1ccccc1F)N1CCC[C@H]1c1nc2ccc(-c3ccc(-c4ccc5nc([C@@H]6CCCN6C(=O)CCc6ccccc6F)[nH]c5c4)cc3)cc2[nH]1` [Compound 8], the EC50 was 160 nM.

For `COC(=O)NC1(C(=O)N2CCC[C@H]2c2nc3ccc(-c4ccc(-c5ccc6nc([C@@H]7CCCN7C(=O)C7(NC(=O)OC)CC7)[nH]c6c5)cc4)cc3[nH]2)CC1` [Compound 9], the EC50 worked out at 1 nM.

With `COc1c(F)cc(CC(=O)N2CCC[C@H]2c2nc3ccc(-c4ccc(-c5ccc6nc([C@@H]7CCCN7C(=O)Cc7cc(F)c(OC)c(F)c7)[nH]c6c5)cc4)cc3[nH]2)cc1F` [Compound 10], the EC50 is 130 nM.

As for `O=C(Cc1ccccc1OC(F)(F)F)N1CCC[C@H]1c1nc2ccc(-c3ccc(-c4ccc5nc([C@@H]6CCCN6C(=O)Cc6ccccc6OC(F)(F)F)[nH]c5c4)cc3)cc2[nH]1` [Compound 11], the EC50 was found to be 160 nM.

For the molecule `O=C(Cc1cccnc1)N1CCC[C@H]1c1nc2ccc(-c3ccc(-c4ccc5nc([C@@H]6CCCN6C(=O)Cc6cccnc6)[nH]c5c4)cc3)cc2[nH]1` [Compound 12], the EC50 was 0.15 nM.

In the case of `O=C(CCc1cccnc1)N1CCC[C@H]1c1nc2ccc(-c3ccc(-c4ccc5nc([C@@H]6CCCN6C(=O)CCc6cccnc6)[nH]c5c4)cc3)cc2[nH]1` [Compound 13], the EC50 was found to be 0.5 nM.

As to `O=C([C@@H]1CCCO1)N1CCC[C@H]1c1nc2ccc(-c3ccc(-c4ccc5nc([C@@H]6CCCN6C(=O)[C@@H]6CCCO6)[nH]c5c4)cc3)cc2[nH]1` [Compound 14], the EC50 was 36 nM.

As for `O=C(C(=O)N1CCC[C@H]1c1nc2ccc(-c3ccc(-c4ccc5nc([C@@H]6CCCN6C(=O)C(=O)c6ccccc6)[nH]c5c4)cc3)cc2[nH]1)c1ccccc1` [Compound 15], the EC50 was 40 nM.

Regarding `O=C(Cc1ccc2c(c1)OCO2)N1CCC[C@H]1c1nc2ccc(-c3ccc(-c4ccc5nc([C@@H]6CCCN6C(=O)Cc6ccc7c(c6)OCO7)[nH]c5c4)cc3)cc2[nH]1` [Compound 16], the EC50 was 69 nM.

In the case of `CCN(CC)[C@@H](C(=O)N1CCC[C@H]1c1nc2ccc(-c3ccc(-c4ccc5nc([C@@H]6CCCN6C(=O)[C@@H](c6ccccc6)N(CC)CC)[nH]c5c4)cc3)cc2[nH]1)c1ccccc1` [Compound 17], the EC50 is 0.03 nM.

As for `CN(C)CCC(=O)N1CCC[C@H]1c1nc2ccc(-c3ccc(-c4ccc5nc([C@@H]6CCCN6C(=O)CCN(C)C)[nH]c5c4)cc3)cc2[nH]1` [Compound 18], the EC50 came to 49 nM.

Consider `O=C(C(c1ccccc1)n1ccnc1)N1CCC[C@H]1c1nc2ccc(-c3ccc(-c4ccc5nc([C@@H]6CCCN6C(=O)C(c6ccccc6)n6ccnc6)[nH]c5c4)cc3)cc2[nH]1` (stereo partly shown) [Compound 19], for which the EC50 was 0.45 nM.

Consider `O=C([C@@H](c1ccccc1)N1CCCCC1)N1CCC[C@H]1c1nc2ccc(-c3ccc(-c4ccc5nc([C@@H]6CCCN6C(=O)[C@@H](c6ccccc6)N6CCCCC6)[nH]c5c4)cc3)cc2[nH]1` [Compound 20], for which the EC50 turned out to be 0.061 nM.

As for `O=C(c1ccoc1)N1CCC[C@H]1c1nc2ccc(-c3ccc(-c4ccc5nc([C@@H]6CCCN6C(=O)c6ccoc6)[nH]c5c4)cc3)cc2[nH]1` [Compound 21], the EC50 was determined as 58 nM.

`CCC(=O)N[C@@H](C(=O)N1CCC[C@H]1c1nc2ccc(-c3ccc(-c4ccc5nc([C@@H]6CCCN6C(=O)[C@H](NC(=O)CC)c6ccccc6)[nH]c5c4)cc3)cc2[nH]1)c1ccccc1` [Compound 22]: the EC50 worked out at 0.034 nM.

Regarding `CNC(=O)N[C@H](C(=O)N1CCC[C@H]1c1nc2ccc(-c3ccc(-c4ccc5nc([C@@H]6CCCN6C(=O)[C@@H](NC(=O)NC)C(C)C)[nH]c5c4)cc3)cc2[nH]1)C(C)C` [Compound 23], the EC50 is 0.57 nM.

Regarding `Cc1nc(C(=O)N2CCC[C@H]2c2nc3ccc(-c4ccc(-c5ccc6nc([C@@H]7CCCN7C(=O)c7nc(C)oc7C)[nH]c6c5)cc4)cc3[nH]2)c(C)o1` [Compound 24], the EC50 stood at 1.4 nM.

As for `O=C(c1ccccn1)N1CCC[C@H]1c1nc2ccc(-c3ccc(-c4ccc5nc([C@@H]6CCCN6C(=O)c6ccccn6)[nH]c5c4)cc3)cc2[nH]1` [Compound 25], the EC50 worked out at 1.7 nM.

`CC(C)C[C@@H](C(=O)N1CCC[C@H]1c1nc2ccc(-c3ccc(-c4ccc5nc([C@@H]6CCCN6C(=O)[C@H](CC(C)C)N(C)C)[nH]c5c4)cc3)cc2[nH]1)N(C)C` [Compound 26]: the EC50 is 76 nM.

Source of the values: patent publication US8623899B2, “Bis-benzimidazole derivatives as hepatitis C virus inhibitors” (Janssen Research & Development Ireland, priority 2009, dated 2014).
